Data on three compounds can be found in US9169209B2, “Compounds and compositions for the inhibition of NAMPT” (FORMA TM, LLC, priority 2011, dated 2015).

In test [1] the target is NAMPT (Homo sapiens (Human), UniProt P43490). The test can be described thus: Biochemical Inhibition Assay (NAMPT enzymatic reaction, NMN quantified by mass spectrometry). To be noted: recombinant His-tagged NAMPT, 33 nM; 1 μM NAM; read-out: Biochem IC50. In outline: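 His-tagged human NAMPT from E. coli was preincubated 15 min at RT with compound in Hepes pH 7.5/MgCl2 buffer. Reaction ran 30 min at RT with 1 μM NAM, 100 μM PRPP and 2.5 mM ATP, then was quenched with formic acid. NMN was measured by RapidFire MS, normalized to L-cystathionine, and IC50 derived from % inhibition.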
NAMPT, sequence (P43490 whole entry): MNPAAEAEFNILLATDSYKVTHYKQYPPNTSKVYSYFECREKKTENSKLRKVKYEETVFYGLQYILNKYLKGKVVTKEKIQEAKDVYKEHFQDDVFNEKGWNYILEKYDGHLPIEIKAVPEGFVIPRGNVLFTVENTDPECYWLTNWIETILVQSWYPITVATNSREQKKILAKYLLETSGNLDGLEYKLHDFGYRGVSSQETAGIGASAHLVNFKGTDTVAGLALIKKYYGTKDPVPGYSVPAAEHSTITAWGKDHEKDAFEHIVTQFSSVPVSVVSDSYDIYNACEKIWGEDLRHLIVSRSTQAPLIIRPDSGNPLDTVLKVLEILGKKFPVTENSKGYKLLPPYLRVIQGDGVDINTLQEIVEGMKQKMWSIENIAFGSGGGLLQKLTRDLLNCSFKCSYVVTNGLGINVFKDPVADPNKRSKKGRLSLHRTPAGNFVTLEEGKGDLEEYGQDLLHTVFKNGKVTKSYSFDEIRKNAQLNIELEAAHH

Test [2] deals with A2780 cells. Put plainly: In-Vitro Cell Proliferation Assay (SRB, 72 hours). Format: cell-based. Conditions: Homo sapiens, A2780, 72 h, A2780 cells, 72 hours, sulforhodamine B; read-out: A2780 IC50. An outline of the steps: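 Plated cells exposed to serially diluted compound (0.1% DMSO final) for 72 h at 37 °C, 5% CO2. Viability by SRB staining after TCA fixation, absorbance 570 nm, media-only background subtracted; % inhibition relative to DMSO-treated cells, interpolated between bracketing concentrations.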

Turning to `CS(=O)(=O)Nc1cccc(S(=O)(=O)c2ccc(NC(=O)/C=C/c3cccnc3)cc2)c1` [(2E)-N-{4-[(3-methanesulfonamidobenzene)sulfonyl]phenyl}-3-(pyridin-3-yl)prop-2-enamide], the IC50 – broadly, the concentration needed to halve the response being measured – in test [1] is 0.0075 µM; in test [2], 0.1 to 1 µM.
The matching figures for `COc1ccc(F)cc1S(=O)(=O)c1ccc(NC(=O)/C=C/c2cccnc2)cc1` [(2E)-N-{4-[(5-fluoro-2-methoxybenzene)sulfonyl]phenyl}-3-(pyridin-3-yl)prop-2-enamide]: 0.0145 µM and 0.0205 µM.
The matching figures for `Cc1cc(C)cc(S(=O)(=O)c2ccc(NC(=O)/C=C/c3cccnc3)cc2)c1` [(2E)-N-{4-[(3,5-dimethylbenzene)sulfonyl]phenyl}-3-(pyridin-3-yl)prop-2-enamide]: 0.0171 µM and 0.0954 µM.
